# Measurements published in patent US20170107179A1 (Tetraphase Pharmaceuticals, Inc., priority 2010, published 2017).
# Like-named read-outs stand apart in the source and are kept apart here.
# How the values were obtained:
# [1] = tested on: Gram-negative and Gram-positive organisms (clinical isolates); experiment: Broth microdilution MIC against clinical isolates (CLSI M7-A8), Table 9; assay type: cell-based
# [2] = tested on: Viridans group streptococci; experiment: Broth microdilution MIC by tetracycline resistance phenotype (Table 10); assay type: cell-based; parameters: unit not given beside the values
# E. coli DH10B EC971 LacZ = experiment: MIC, E. coli DH10B recombinantly expressing control gene; conditions: E. coli DH10B, arabinose-induced, ampicillin in medium
# [3] = tested on: evaluated pathogens by tetracycline phenotype; experiment: Broth microdilution MIC by tetracycline phenotype (Table 14)
# [4] = tested on: E. coli DH10B EC1153 Tet(X); experiment: MIC, E. coli DH10B recombinantly expressing tetracycline-resistance gene; conditions: arabinose-induced, ampicillin in medium
# E. coli DH10B EC969 TetM = experiment: as above; conditions: arabinose-induced, ampicillin in medium
# E. coli DH10B EC970 TetK = experiment: as above; conditions: arabinose-induced, ampicillin in medium
# [5] = tested on: E. coli DH10B EC1082 TetA; experiment: as above; conditions: arabinose-induced, ampicillin in medium
# [6] = tested on: E. coli DH10B EC1083 TetB; experiment: as above; conditions: arabinose-induced, ampicillin in medium
# [7] = tested on: S. pneumoniae strain SP514; experiment: Immunocompetent CD-1 murine lung infection model; assay type: in vivo; conditions: immunocompetent CD-1 mice, SP514, orally dosed 30 mg/kg at 5, 24 and 36 hours post-infection (FIG. 2)
# Protocol: Compound 102 was tested in an immunocompetent CD-1 murine model of lung infection challenged with S. pneumoniae strain SP514.
# [8] = Klebsiella aerogenes, Enterobacter aerogenes, n=30
# [9] = Klebsiella pneumoniae, Klebsiella pneumonia, n=27
# [10] = Staphylococcus aureus, Staphylococcus aureus (MRSA PVL+), n=30, read-out: MIC50
# [11] = Staphylococcus aureus, Staphylococcus aureus (MRSA PVL+), n=30, read-out: MIC90
# [12] = Staphylococcus aureus, Staphylococcus aureus MRSA (includes MRSA PVL+ group), n=105, read-out: MIC50
# [13] = Staphylococcus aureus, Staphylococcus aureus MRSA (includes MRSA PVL+ group), n=105, read-out: MIC90
# [14] = Stenotrophomonas maltophilia, n=29
# [15] = Streptococcus intermedius, n=30
# [16] = Enterococcus faecium, E. faecium, TET NS, N=40
# [17] = Enterococcus faecium, E. faecium, TET S, N=60
# [18] = Streptococcus agalactiae, S. agalactiae, TET NS, N=39
# [19] = Streptococcus agalactiae, S. agalactiae, TET S, N=11
# [20] = Streptococcus pneumoniae, S. pneumoniae, TET NS, N=46
# [21] = Streptococcus pneumoniae, S. pneumoniae, TET S, N=54
# [22] = Streptococcus pyogenes, S. pyogenes, TET S, N=44
compound,measurement,setting,value
"CN(C)c1cc(NC(=O)CNC(C)(C)C)c(O)c2c1C[C@H]1C[C@H]3[C@H](N(C)C)C(O)=C(C(N)=O)C(=O)[C@@]3(O)C(O)=C1C2=O [Tigecycline, tigecycline]",MIC50,"[1]; Acinetobacter lwoffii, n=29",0.12 µg/mL
same,MIC90,"[1]; Acinetobacter lwoffii, n=29",0.5 µg/mL
same,MIC50,"[1]; Enterobacter cloacae, n=29",1 µg/mL
same,MIC90,"[1]; Enterobacter cloacae, n=29",4 µg/mL
same,MIC50,"[1]; Escherichia coli, n=40",0.5 µg/mL
same,MIC90,"[1]; Escherichia coli, n=40",2 µg/mL
same,MIC50,"[1]; Kiebsielia oxytoca, n=30",0.5 µg/mL
same,MIC90,"[1]; Kiebsielia oxytoca, n=30",2 µg/mL
same,MIC50,[1]; [8],0.5 µg/mL
same,MIC90,[1]; [8],0.5 µg/mL
same,MIC50,[1]; [9],2 µg/mL
same,MIC90,[1]; [9],4 µg/mL
same,MIC50,"[1]; Morganella morganii, n=30",2 µg/mL
same,MIC90,"[1]; Morganella morganii, n=30",4 µg/mL
same,MIC50,"[1]; Proteus vulgaris, n=29",2 µg/mL
same,MIC90,"[1]; Proteus vulgaris, n=29",4 µg/mL
same,MIC50,"[1]; Salmonella species, n=30",0.25 µg/mL
same,MIC90,"[1]; Salmonella species, n=30",0.5 µg/mL
same,MIC50,"[1]; Serratia marcescens, n=30",1 µg/mL
same,MIC90,"[1]; Serratia marcescens, n=30",2 µg/mL
same,MIC50,[1]; [10],0.12 µg/mL
same,MIC90,[1]; [11],0.12 µg/mL
same,MIC50,[1]; [12],0.13 µg/mL
same,MIC90,[1]; [13],0.25 µg/mL
same,MIC50,[1]; [14],0.5 µg/mL
same,MIC90,[1]; [14],2 µg/mL
same,MIC50,"[1]; Streptococcus anginosus, n=20",0.03 µg/mL
same,MIC90,"[1]; Streptococcus anginosus, n=20",0.06 µg/mL
same,MIC50,[1]; [15],0.03 µg/mL
same,MIC90,[1]; [15],0.12 µg/mL
same,MIC50,"[1]; Streptococcus mitis, n=29",0.03 µg/mL
same,MIC90,"[1]; Streptococcus mitis, n=29",0.12 µg/mL
same,MIC50,"[1]; Streptococcus sanguis, n=18",0.03 µg/mL
same,MIC90,"[1]; Streptococcus sanguis, n=18",0.06 µg/mL
same,MIC50,"[2]; TET NS, n=32",0.03
same,MIC90,"[2]; TET NS, n=32",0.12
same,MIC50,"[2]; TET S, n=65",0.03
same,MIC90,"[2]; TET S, n=65",0.06
same,MIC EC971 LacZ,E. coli DH10B EC971 LacZ,0.0625
same,MIC50,[3]; [16],0.06 µg/mL
same,MIC90,[3]; [16],0.12 µg/mL
same,MIC50,[3]; [17],0.06 µg/mL
same,MIC90,[3]; [17],0.06 µg/mL
same,MIC50,"[3]; F. faecalis, TET NS, N=71",0.12 µg/mL
same,MIC90,"[3]; F. faecalis, TET NS, N=71",0.12 µg/mL
same,MIC50,"[3]; F. faecalis, TET S, N=30",0.06 µg/mL
same,MIC90,"[3]; F. faecalis, TET S, N=30",0.12 µg/mL
same,MIC50,[3]; [18],0.12 µg/mL
same,MIC90,[3]; [18],0.12 µg/mL
same,MIC50,[3]; [19],0.12 µg/mL
same,MIC90,[3]; [19],0.12 µg/mL
same,MIC50,[3]; [20],0.06 µg/mL
same,MIC90,[3]; [20],0.06 µg/mL
same,MIC50,[3]; [21],0.06 µg/mL
same,MIC90,[3]; [21],0.06 µg/mL
same,MIC50,"[3]; Streptococcus pyogenes, S. pyogenes, TET NS, N=6",0.06 µg/mL
same,MIC50,[3]; [22],0.06 µg/mL
same,MIC90,[3]; [22],0.06 µg/mL
same,MIC EC1153 Tet(X),[4],2
same,MIC EC969 TetM,E. coli DH10B EC969 TetM,0.125
same,MIC EC970 TetK,E. coli DH10B EC970 TetK,0.0625
same,MIC EC1082 TetA,[5],1
same,MIC EC1083 TetB,[6],0.0625
"CC(=O)NC[C@H]1CN(c2ccc(N3CCOCC3)c(F)c2)C(=O)O1 [linezolid, Linezolid]",log10 reduction in CFU versus the 48 hour untreated control,[7],3.56±0.63 log10
same,MIC50,[1]; [10],1 µg/mL
same,MIC90,[1]; [11],2 µg/mL
same,MIC50,[1]; [12],2 µg/mL
same,MIC90,[1]; [13],4 µg/mL
same,MIC50,"[1]; Streptococcus anginosus, n=20",0.5 µg/mL
same,MIC90,"[1]; Streptococcus anginosus, n=20",1 µg/mL
same,MIC50,[1]; [15],1 µg/mL
same,MIC90,[1]; [15],1 µg/mL
same,MIC50,"[1]; Streptococcus mitis, n=29",1 µg/mL
same,MIC90,"[1]; Streptococcus mitis, n=29",1 µg/mL
same,MIC50,"[1]; Streptococcus sanguis, n=18, read-out: MIC50",0.5 µg/mL
same,MIC90,"[1]; Streptococcus sanguis, n=18, read-out: MIC90",1 µg/mL
